For one data set, the target named is T1, AP-N (EC3.4.11.2) (Sus scrofa, UniProt P15145).
T1 construct: The AP-N is purified in a soluble form according to the method described by Wacker; purchased Sigma Chemical Corporation; host or cells: porcine livers (tissue)
T1 sequence (P15145 33-963 limits assumed): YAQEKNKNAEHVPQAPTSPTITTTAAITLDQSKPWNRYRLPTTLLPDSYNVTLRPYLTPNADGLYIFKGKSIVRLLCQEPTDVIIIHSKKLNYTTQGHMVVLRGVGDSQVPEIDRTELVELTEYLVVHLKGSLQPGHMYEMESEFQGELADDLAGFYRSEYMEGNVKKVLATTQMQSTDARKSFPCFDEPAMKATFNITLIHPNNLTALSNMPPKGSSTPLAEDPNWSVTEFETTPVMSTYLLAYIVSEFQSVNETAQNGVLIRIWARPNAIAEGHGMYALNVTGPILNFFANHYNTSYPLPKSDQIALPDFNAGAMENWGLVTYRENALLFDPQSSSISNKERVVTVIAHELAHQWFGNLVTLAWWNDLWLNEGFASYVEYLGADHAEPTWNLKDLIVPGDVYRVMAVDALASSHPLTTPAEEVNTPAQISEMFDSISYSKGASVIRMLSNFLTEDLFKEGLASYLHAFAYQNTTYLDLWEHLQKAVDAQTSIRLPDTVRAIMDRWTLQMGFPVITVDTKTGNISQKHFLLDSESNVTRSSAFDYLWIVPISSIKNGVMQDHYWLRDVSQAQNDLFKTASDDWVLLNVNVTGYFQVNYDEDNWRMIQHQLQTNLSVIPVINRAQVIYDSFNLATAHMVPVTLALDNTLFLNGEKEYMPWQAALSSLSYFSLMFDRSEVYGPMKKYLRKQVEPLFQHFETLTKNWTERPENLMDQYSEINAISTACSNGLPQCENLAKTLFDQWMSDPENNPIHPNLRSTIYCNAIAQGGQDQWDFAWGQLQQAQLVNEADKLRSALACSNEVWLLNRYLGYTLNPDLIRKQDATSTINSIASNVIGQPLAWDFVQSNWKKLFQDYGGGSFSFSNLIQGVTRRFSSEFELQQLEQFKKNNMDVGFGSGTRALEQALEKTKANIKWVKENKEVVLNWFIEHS
The data set can be described thus: AP-N inhibitory activity, inhibition constant Ki by spectrophotometry (Dixon method). Particulars: L-leucine para-nitroanilide substrate, 30° C., pH=7.5; hydrochloride, racemic mixture. The data set is classed as biochemical, porcine. An excerpt:
(§1) LTA4H has an aminopeptidase type activity similar to AP-N and a very close substrate specificity. It is important for the AP-N inhibitory molecules neither to inhibit LTA4H nor aminopeptidases that contain a co-catalytic unit like LAPc.
(§2) The LAPc enzymes from bovine livers and AP-N from porcine livers are marketed by Sigma Chemical Corporation. The AP-N is purified in a soluble form according to the method described by Wacker, H., Lecky, P., Fischer E. H., Stein, E. A. Hely. Chim.
(§3) The kinetic studies are carried out at 30° C. and the reactions are started up by adding the enzymes in 1 mL of test medium: LAPc, 5 units in 10 mM Tris-HCl, 0.1 mM ZnCl2, 5 mM MnCl2, 1 M KCl, pH=8.0; AP-N, 25 mUnits in 10 mM Tris-HCl, pH=7.5 and LTA4H, 5 μg in 10 mM Tris-HCl, 0.1 mM KCl, pH=7.5.
(§4) All the inhibitory molecules are assessed as an hydrochloride and in racemic mixture.

The target of data set [1] is T2, human recombinant leukotriene A4 hydrolase (LTA4H) (EC3.3.2.6) (Homo sapiens, UniProt P09960).
T2 sequence (P09960 1-611): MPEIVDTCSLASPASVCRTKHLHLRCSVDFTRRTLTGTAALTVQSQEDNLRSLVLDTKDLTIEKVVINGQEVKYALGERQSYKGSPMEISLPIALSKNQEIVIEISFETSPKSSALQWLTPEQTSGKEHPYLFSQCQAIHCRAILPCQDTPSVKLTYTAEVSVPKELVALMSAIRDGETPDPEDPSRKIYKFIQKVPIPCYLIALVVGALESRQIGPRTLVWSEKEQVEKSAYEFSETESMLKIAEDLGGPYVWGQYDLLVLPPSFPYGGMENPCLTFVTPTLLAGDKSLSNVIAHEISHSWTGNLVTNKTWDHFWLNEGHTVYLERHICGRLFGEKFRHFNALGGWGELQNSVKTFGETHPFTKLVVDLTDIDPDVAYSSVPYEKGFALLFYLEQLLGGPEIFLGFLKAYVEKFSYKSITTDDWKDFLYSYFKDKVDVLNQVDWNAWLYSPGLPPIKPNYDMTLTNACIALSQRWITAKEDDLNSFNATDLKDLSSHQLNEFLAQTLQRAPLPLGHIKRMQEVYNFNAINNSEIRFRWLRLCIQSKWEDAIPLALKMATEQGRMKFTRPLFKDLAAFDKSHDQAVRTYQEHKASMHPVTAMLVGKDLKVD
The data set can be described thus: LTA4H aminopeptidase inhibition, Ki by spectrophotometry (Dixon method). In kind it is biochemical. Particulars: alanine para-nitroanilide substrate, 30° C., pH=7.5; hydrochloride, racemic mixture. How it is done: as §1, §3, §4

Data set [2] has as its target T3, cytosolic leucine aminopeptidase (LAPc) (EC3.4.11.1) (Bos taurus, UniProt P00727).
T3 construct: The LAPc enzymes from bovine livers; purchased Sigma Chemical Corporation; host or cells: bovine livers (tissue)
T3 sequence (P00727 1-519): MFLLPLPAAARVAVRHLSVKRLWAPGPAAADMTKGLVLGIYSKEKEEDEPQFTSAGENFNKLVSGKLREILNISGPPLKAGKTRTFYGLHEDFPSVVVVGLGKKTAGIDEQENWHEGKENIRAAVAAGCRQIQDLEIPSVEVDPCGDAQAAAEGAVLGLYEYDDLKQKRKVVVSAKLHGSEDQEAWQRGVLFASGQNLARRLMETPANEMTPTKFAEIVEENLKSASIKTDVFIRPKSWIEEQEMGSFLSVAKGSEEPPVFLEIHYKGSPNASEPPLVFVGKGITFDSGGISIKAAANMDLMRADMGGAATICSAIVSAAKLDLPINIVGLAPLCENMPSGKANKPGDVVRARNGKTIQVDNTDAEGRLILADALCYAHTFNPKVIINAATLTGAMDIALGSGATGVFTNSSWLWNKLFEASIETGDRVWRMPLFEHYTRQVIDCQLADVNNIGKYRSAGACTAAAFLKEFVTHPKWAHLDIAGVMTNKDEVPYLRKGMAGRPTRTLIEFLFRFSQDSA
The data set can be described thus: LAPc inhibition, Ki by spectrophotometry (Dixon method). In kind it is biochemical, bovine.
Description: as §1, §2, §3, §4

Another data set concerns the target T4, AP-N from porcine livers (Sus scrofa, UniProt P15145).
T4 construct: The AP-N is purified in a soluble form according to the method described by Wacker; purchased Sigma Chemical Corporation; host or cells: porcine livers (tissue)
T4 sequence (P15145 33-963 limits assumed): T1 sequence (P15145 33-963 limits assumed)
The data set can be described thus: Stability in aqueous solution, followed by AP-N inhibition over at least 10 hours. In kind it is biochemical. Particulars: read-out: inhibition of AP-N throughout the test. How it is done: The enzymatic tests are carried out at 25° C. in 20 mM Tris-HCl, pH=7.5 with 0.2 mM L-leucine para-nitroanilide as a substrate, in a total reaction volume of 1 mL. […] The reaction is started up by adding 3 milliunits of AP-N from porcine livers.
Under these experimental conditions, the linear kinetics is monitored for at least 10 hours.

Where [3] appears, read: L-leucine para-nitroanilide substrate, 30° C., pH=8.0, hydrochloride, racemic mixture, read-out: Ki (M) LAPc (EC3.4.11.1).

SMILES strings stand for the structures. Counter-ions that a name gives are not always drawn. Like-named read-outs stand apart in the source and are kept apart here.

Usually melting point stands for the temperature, or range, at which the solid turns liquid. Broadly, the Ki is a dissociation constant, usually derived from enzyme kinetics or from competition with a known ligand. Broadly, the inhibition is the relative decrease from the control value, in per cent.

Take `Cl.NC1CCc2ccccc2CC1=NO` (stereo not drawn): the melting point is 270 to 280 °C.

Take `Cl.NC1CCc2ccccc2CC1=O` (racemic) [EX 2, 7-amino-5,7,8,9-tetrahydro-benzocyclohepten-6-one hydrochloride]: the Ki at AP-N (EC3.4.11.2) is 1 µM; in data set [1] it was over 1000 µM; in data set [2] (setting [3]), over 0.001 M. The inhibition at 200 µM on AP-N from porcine livers was 50%.

In the case of `NC1CCc2ccccc2C(F)C1=O` (racemic) [EX 3, 7-amino-5-fluoro-5,7,8,9-tetrahydro-benzocyclohepten-6-one hydrochloride], the inhibition constant (Ki) was 0.3 µM at AP-N (EC3.4.11.2), over 1000 µM in data set [1] and over 0.001 M in data set [2] (setting [3]).

Take `Cl.NC1CCc2ccccc2C(CCCc2ccccc2)C1=O` (racemic) [EX 6, 5-phenylpropyl-7-amino-5,7,8,9-tetrahydro-benzocyclohepten-6-one hydrochloride]: the melting point was 156 to 158 °C. At AP-N (EC3.4.11.2), the Ki worked out at 12 µM. In addition, the Ki in data set [1] is over 1000 µM. Further, the Ki in data set [2] (setting [3]) was over 0.001 M.

Turning to `NC1CCc2cccc(-c3ccccc3)c2CC1=O` (racemic) [EX 7, 7-amino-4-phenyl-5,7,8,9-tetrahydro-benzocyclohepten-6-one hydrochloride], the Ki in data set [1] is over 1000 µM; in data set [2] (setting [3]) it was 2e-05 M.

Regarding `NC1CCc2ccccc2C(SCc2ccccc2)C1=O` (racemic) [EX 8, 5-benzylsulphanyl-7-amino-5,7,8,9-tetrahydro-benzocyclohepten-6-one hydrochloride], the inhibition constant Ki at AP-N (EC3.4.11.2) is 0.08 µM; in data set [1], over 1000 µM; in data set [2] (setting [3]), over 0.001 M.

For `NC1CCc2c(Br)cccc2CC1=O` (racemic) [EX 9, 7-amino-1-bromo-5,7,8,9-tetrahydro-benzocyclohepten-6-one hydrochloride], the inhibitory constant (Ki) in data set [1] is over 1000 µM; in data set [2] (setting [3]), over 0.001 M.

With `NC1Cc2ccccc2CC1=O` (racemic) [EX 10, 2-amino-3-tetralone, reference compound], the Ki in data set [1] is over 1000 µM; in data set [2] it was 0.00012 M.

These data come from US20100069504A1, “AMINOBENZOCYCLOHEPTENE DERIVATIVES, METHODS FOR PREPARING THE SAME AND USES THEREOF IN THERAPY” (UNIVERSITE DE HAUTE ALSACE, priority 2006, published 2010).
